One assay relates to BAW (Spodoptera exigua). Nature of the assay: Bioassays on Beet Armyworm (BAW), 128-well diet tray assay. In kind it is in vivo. The conditions noted are these: Spodoptera exigua, 168 h, read-out: BAW Rating. How it is done:
(§1) Bioassays on Beet Armyworm (“BAW”) and Corn Earworm (“CEW”) and Cabbage Looper (“CL”)
(§2) Certain molecules disclosed in this document were tested against BAW and CEW and CL using procedures described in the following examples. In the reporting of the results, the “BAW & CEW & CL Rating Table” was used (See Table Section).
Bioassays on BAW (Spodoptera exigua)
Bioassays on BAW were conducted using a 128-well diet tray assay. one to five second instar BAW larvae were placed in each well (3 mL) of the diet tray that had been previously filled with 1 mL of artificial diet to which 50 μg/cm^2 of the test compound (dissolved in 50 μL of 90:10 acetone-water mixture) had been applied (to each of eight wells) and then allowed to dry. Trays were covered with a clear self-adhesive cover, and held at 25° C., 14:10 light-dark for five to seven days. Percent mortality was recorded for the larvae in each well; activity in the eight wells was then averaged. The results are indicated in the table entitled “Table 3: Assay Results” (See Table Section).

For the next assay, the system named is CEW (Helicoverpa zea). Nature of the assay: Bioassays on Corn Earworm (CEW), 128-well diet tray assay. In kind it is in vivo. The following applies: Helicoverpa zea, 168 h, read-out: CEW Rating. How it is done: as §1, §2
Bioassays on CEW (Helicoverpa zea)
Bioassays on CEW were conducted using a 128-well diet tray assay. one to five second instar CEW larvae were placed in each well (3 mL) of the diet tray that had been previously filled with 1 mL of artificial diet to which 50 μg/cm^2 of the test compound (dissolved in 50 μL of 90:10 acetone-water mixture) had been applied (to each of eight wells) and then allowed to dry. Trays were covered with a clear self-adhesive cover, and held at 25° C., 14:10 light-dark for five to seven days. Percent mortality was recorded for the larvae in each well; activity in the eight wells was then averaged. The results are indicated in the table entitled “Table 3: Assay Results” (See Table Section).

[1] abbreviates: percent mortality, second instar larvae, 50 μg/cm^2 on artificial diet, five to seven days, 25° C.

The values below come from patent publication US9210927B2, “Pesticidal compositions and processes related thereto” (Dow AgroSciences LLC, priority 2013, dated 2015).

Molecules are shown by their SMILES. Like-named read-outs stand apart in the source and are kept apart here.

As for `Cc1cc(/C=C/C(c2cc(Cl)cc(Cl)c2)C(F)(F)F)ccc1C(=O)NCC(=O)NC1CSC1` (stereo not shown) [AC41], in the assay with BAW (Spodoptera exigua), the pest or weed control at 50 µg/cm2 lay within 50 to 100%.

Turning to `Cc1cc(/C=C/C(c2cc(Cl)cc(Cl)c2)C(F)(F)F)ccc1C(=O)NCc1nc2ccccc2s1` (stereo not shown) [AC42], the pest or weed control at 50 µg/cm2 in the assay with BAW (Spodoptera exigua) lay in the range of 50 to 100%.

Take `Cc1cc(/C=C/C(c2cc(Cl)cc(Cl)c2)C(F)(F)F)ccc1C(=O)NCC(=O)NC1CS(=O)(=O)C1` (stereo not shown) [AC81]: in the assay with BAW (Spodoptera exigua), the pest or weed control at 50 µg/cm2 was 50 to 100%.

`Cc1cc(/C=C\C(c2cc(Cl)cc(Cl)c2)C(F)(F)F)ccc1C(=O)NCC(=O)NC1CC1` (stereo not shown) [AC93]: the pest or weed control at 50 µg/cm2 with BAW (Spodoptera exigua) is 50 to 100%.

Turning to `O=C(CNC(=O)c1ccc(/C=C/C(c2cc(F)c(Cl)c(F)c2)C(F)(F)F)cc1Br)NCC(F)(F)F` (stereo not shown) [AC102], the pest or weed control at 50 µg/cm2 in the assay on CEW (Helicoverpa zea) (setting [1]) was 50 to 100%.

Regarding `O=C(NC1CCN(C2COC2)CC1)c1ccc(/C=C/C(c2cc(Cl)c(Cl)c(Cl)c2)C(F)(F)F)cc1Br` (stereo not shown) [AC108, (E)-2-Bromo-N-(1-(oxetan-3-yl)piperidin-4-yl)-4-(4,4,4-trifluoro-3-(3,4,5-trichlorophenyl)but-1-en-1-yl)benzamide], the pest or weed control at 50 µg/cm2 with BAW (Spodoptera exigua) lay within 0 to 50%.

For `Cc1cc(/C=C/C(c2cc(Cl)cc(Cl)c2)C(F)(F)F)ccc1C(=O)NCC1CCCO1` (stereo not shown) [AC118], the pest or weed control at 50 µg/cm2 with BAW (Spodoptera exigua) was 50 to 100%.

Take `O=C(Cn1ncc2cc(/C=C/C(c3cc(Cl)c(F)c(Cl)c3)C(F)(F)F)ccc2c1=O)NCC(F)(F)F` (stereo not shown) [BC14, (E)-2-(6-(3-(3,5-Dichloro-4-fluorophenyl)-4,4,4-trifluorobut-1-en-1-yl)-1-oxophthalazin-2(1H)-yl)-N-(2,2,2-trifluoroethyl)acetamide]: the pest or weed control at 50 µg/cm2 with BAW (Spodoptera exigua) was 50 to 100%.

For the molecule `O=C(Cc1ccc(Cl)nc1)NCc1ccc(/C=C/C(c2cc(Cl)c(Cl)c(Cl)c2)C(F)(F)F)cc1Cl` (stereo not shown) [CC14], the pest or weed control at 50 µg/cm2 in the assay with BAW (Spodoptera exigua) lay within 50 to 100%.

Consider `CCNC(=O)NCc1ccc(/C=C/C(c2cc(Cl)cc(Cl)c2)C(F)(F)F)cc1Cl` (stereo not shown) [CC31, (E)-1-(2-Chloro-4-(3-(3,5-dichlorophenyl)-4,4,4-trifluorobut-1-en-1-yl)benzyl)-3-ethylurea], for which the pest or weed control at 50 µg/cm2 in the assay on BAW (Spodoptera exigua) lay in the range of 0 to 50%.

With `O=C(NCc1ccc(/C=C/C(c2cc(Cl)c(Cl)c(Cl)c2)C(F)(F)F)cc1Cl)Oc1ccccc1Cl` (stereo not shown) [CC40], the pest or weed control at 50 µg/cm2 in the assay with CEW (Helicoverpa zea) lay in the range of 50 to 100%.

For the molecule `O=C(CC(F)(F)F)NCc1ccc(/C=C/C(c2cc(Cl)c(Cl)c(Cl)c2)C(F)(F)F)c2ccccc12` (stereo not shown) [CC46, (E)-3,3,3-Trifluoro-N-((4-(4,4,4-trifluoro-3-(3,4,5-trichlorophenyl)but-1-en-1-yl)naphthalen-1-yl)methyl)propanamide], the pest or weed control at 50 µg/cm2 in the assay with CEW (Helicoverpa zea) (setting [1]) was 50 to 100%.

In the case of `O=C(NOc1ccc(/C=C/C(c2cc(Cl)c(Cl)c(Cl)c2)C(F)(F)F)cc1)C1CC1` (stereo not shown) [CC52, (E)-N-(4-(4,4,4-Trifluoro-3-(3,4,5-trichlorophenyl)but-1-en-1-yl)phenoxy)cyclopropanecarboxamide], in the assay on BAW (Spodoptera exigua), the pest or weed control at 50 µg/cm2 lay within 50 to 100%.

For `FC(F)(F)C(/C=C/c1ccc(-n2cncn2)cc1)c1ccccc1` (stereo not shown) [DC3], in the assay on BAW (Spodoptera exigua), the pest or weed control at 50 µg/cm2 fell in the range of 0 to 50%.

On to `FC(F)(F)C(/C=C/c1ccc(-n2cncn2)cc1)c1ccc(Cl)cc1` (stereo not shown) [DC4], for which the pest or weed control at 50 µg/cm2 in the assay on BAW (Spodoptera exigua) fell in the range of 50 to 100%.

For `Fc1ccc(C(/C=C/c2ccc(-n3cncn3)cc2)C(F)(F)F)cc1` (stereo not shown) [DC7], the pest or weed control at 50 µg/cm2 in the assay on BAW (Spodoptera exigua) is 50 to 100%.

Consider `Fc1cc(F)cc(C(/C=C/c2ccc(-n3cncn3)cc2)C(F)(F)F)c1` (stereo not shown) [DC8], for which the pest or weed control at 50 µg/cm2 in the assay on BAW (Spodoptera exigua) was 50 to 100%.

As for `Cc1cc(C)cc(C(/C=C/c2ccc(-n3cncn3)cc2)C(F)(F)F)c1` (stereo not shown) [DC11], the pest or weed control at 50 µg/cm2 with BAW (Spodoptera exigua) was in the range of 50 to 100%.

On to `COc1c(Cl)cc(C(/C=C/c2ccc(-n3cncn3)cc2)C(F)(F)F)cc1Cl` (stereo not shown) [DC20], for which the pest or weed control at 50 µg/cm2 in the assay with BAW (Spodoptera exigua) was 50 to 100%.

Consider `Cc1ncnn1-c1ccc(/C=C/C(c2cc(Cl)cc(Cl)c2)C(F)(F)F)cc1` (stereo not shown) [DC23], for which the pest or weed control at 50 µg/cm2 with CEW (Helicoverpa zea) (setting [1]) was in the range of 50 to 100%.

On to `OCc1cc(/C=C/C(c2cc(Cl)cc(Cl)c2)C(F)(F)F)ccc1-n1cncn1` (stereo not shown) [DC53], for which the pest or weed control at 50 µg/cm2 in the assay on CEW (Helicoverpa zea) (setting [1]) lay within 50 to 100%.

As for `Cc1cc(-n2cncn2)ccc1/C=C/C(c1cc(Cl)cc(Cl)c1)C(F)(F)F` (stereo not shown) [DC65], the pest or weed control at 50 µg/cm2 in the assay with CEW (Helicoverpa zea) (setting [1]) was in the range of 50 to 100%.
